Measurements taken from patent US20090047221A1 (NIPRI LIMITED, priority 2004, published 2009).
Like-named read-outs stand apart in the source and are kept apart here.

Experiments:
Assay in all cases: MTT assay (anti-proliferative activity)
Assay type in all cases: cell-based
SkMel28 = conditions: read-out: IC 50 SkMel28
Description: (§1) The MTT assay was used initially to determine the anti-proliferative activity of the test compounds. In the MTT assay a yellow thiazolyl blue tetrazolium bromide salt (MTT) is reduced, in metabolically active cells, to form insoluble purple formazan crystals which are solubilised by the addition of dimethyl sulphoxide (DMSO).
(§2) Wells containing medium only were used as blanks. Following the attachment period, cells were treated with appropriate drug concentrations (20 μl added per well). 40 mg/ml stock drug solutions, in DMSO, were stored at −20° C. and on the day of drug treatment working solutions of 4 mg/ml were prepared in medium which was further diluted to achieve final drug dilution volumes of 20 μl. Initial screening was determined over a concentration range of 1-200 μg/ml. […] Cells were exposed to drug for 96 h continual exposure (37° C., 5% CO2). Following the 96 h incubation, 50 μl MTT solution (1 g MTT/500 ml PBS) was added per well and the plates were further incubated for 4 h (37° C., 5% CO2). After incubation the MTT and medium was removed from the wells and 100 μl DMSO added per well. Plates were agitated on an orbital mixer platform (Stuart Scientific) for 10 minutes. Absorbance was measured at 570 nm on a Biotrak II (Amersham Bioscience) plate reader. IC50 values were calculated comparing control and drug treated cells.

MDA-MB-468 = conditions: read-out: IC 50 MDA-MB-468
Description: as §1, §2

MCF-7 = conditions: read-out: IC 50 MCF-7
Description: as §1, §2

MalMe3M = conditions: 96 h continual exposure, read-out: IC 50 MalMe3M
Description: as §1, §2

[1] = Homo sapiens, SK-MEL-28, 96 h continual exposure
[2] = Homo sapiens, MDA-MB-468, 96 h continual exposure
[3] = Homo sapiens, MCF7, 96 h continual exposure

Row | Molecule | IC50 (SkMel28; 96 h continual exposure) [µM] | IC50 (MDA-MB-468; 96 h continual exposure) [µM] | IC50 (MCF-7; 96 h continual exposure) [µM] | IC50 (MalMe3M) [µM] | IC50 (SkMel28; [1]) [µM] | IC50 (MDA-MB-468; [2]) [µM] | IC50 (MCF-7; [3]) [µM] | IC50 (MalMe3M; Homo sapiens, Malme-3M) [µM]
1 | CC1Cc2ccc(C(=O)N3CCCC3)c(O)c2C(=O)O1 (racemic) [ALM-47, Pyrrolidine Amide] | > 726 | 490 | > 726 | > 726 |  |  |  | 
2 | CC1Cc2c(I)cc(I)c(O)c2C(=O)O1 (racemic) [ALM-27, Racemic 2,4-di-iodomellein] |  |  |  |  | 76.8 | 48.8 | 116 | 109
3 | CC(=O)Oc1cccc2c1C(=O)OC(C)C2 (racemic) [ALM-15, Acetyl rac-Mellein] | 622 | 345 | 613 | 613 |  |  |  | 
4 | CC1Cc2ccc(C(=O)O)c(O)c2C(=O)O1 (racemic) [ALM-33, 8-Hydroxy-3-methyl-1-oxo-isochroman-7-carboxylic acid] |  |  |  |  | > 900 | 585 | > 900 | > 900
5 | CC1Cc2ccc(C(=O)NCCC(=O)O)c(O)c2C(=O)O1 (racemic) | > 681 | 222 | 136 | 290 |  |  |  | 
6 | CC/C=C\C/C=C\C/C=C\CCCCCCCC(=O)Oc1cccc2c1C(=O)OC(C)C2 (racemic) [ALM-19, Racemic Mellein α-Linolenyl Ester] | > 455 | > 455 | > 455 | > 455 |  |  |  | 
7 | CC1Cc2ccc3c(c2C(=O)O1)OC(C)(C)OC3=O (centres unmarked) [ALM-75, Acetonide Compound] |  |  |  |  | > 762 | > 762 | > 762 | > 762
8 | Racemic Mellein Oleyl Ester [ALM-17] | > 451 | > 451 | > 451 | > 451 |  |  |  | 
9 | C[C@H]1Cc2cccc(O)c2C(=O)O1 [ALM-10, (3S)-mellein] |  |  |  |  | 961 | 317 | 596 | 360
10 | COc1cccc2c1C(=O)OC(C)C2 (racemic) [ALM-12, Racemic Mellein Methyl Ether] |  |  |  |  | > 1040 | 583 | > 1040 | > 1040
11 | COc1cc(O)c2c(c1)CC(C)OC2=O (racemic) [ALM-8, 8-Hydroxy-6-methoxy-3-methylisochroman-1-one] |  |  |  |  | 725 | 428 | 428 | 663
12 | CCCCCCCCCCCCOC(=O)c1ccc2c(c1O)C(=O)OC(C)C2 (racemic) [ALM-41, Dodecyl Ester] | 256 | 166 | 192 | 333 |  |  |  | 
13 | C[C@@H]1Cc2ccc(C(=O)N[C@@H](Cc3ccccc3)C(=O)O)c(O)c2C(=O)O1 [ALM-32, ochratoxin B] | 21.6 | 18.9 | 18.9 | 13.5 |  |  |  | 
14 | CC1Cc2ccc(C(=O)NC(C(=O)O)c3ccccc3)c(O)c2C(=O)O1 (mixture of isomers) [ALM-64] | > 562 | 118 | 197 | > 562 |  |  |  | 
15 | CC1Cc2ccc(C(=O)NC(CCCCN)C(=O)O)c(O)c2C(=O)O1 (mixture of isomers) [ALM-67] | > 570 | > 570 | > 570 | > 570 |  |  |  | 
16 | COc1cccc2c1C(=O)O[C@@H](C)C2 [ALM-13, (3S)-methoxy mellein] |  |  |  |  | > 1040 | 1040 | > 1040 | 822
17 | CCCCC/C=C\C/C=C\CCCCCCCC(=O)Oc1cccc2c1C(=O)OC(C)C2 (racemic) [ALM-18, Racemic Mellein Linoleyl Ester] | > 453 | > 453 | > 453 | > 453 |  |  |  | 
